Test results taken from patent publication US20230002359A1, “PESTICIDALLY ACTIVE FUSED BICYCLIC HETEROAROMATIC COMPOUNDS” (priority 2019, published 2023).
Read-outs that look alike come from different tables or passages of the source.

Tests used:
Assay type in all cases: in vivo
[1] = system: Plutella xylostella (Diamond Back Moth); assay: Example B4: Plutella xylostella (diamond back moth), artificial diet, eggs, 24-well; conditions: 192 h, read-out: control in at least one of the two categories (mortality or growth inhibition)
Protocol: 24-well microtiter plates with artificial diet were treated with aqueous test solutions prepared from 10′000 ppm DMSO stock solutions by pipetting. After drying, Plutella eggs were pipetted through a plastic stencil onto a gel blotting paper and the plate was closed with it. The samples were assessed for mortality and growth inhibition in comparison to untreated samples 8 days after infestation.

[2] = system: Chilo suppressalis (Striped Rice Stemborer); assay: Example B3: Chilo suppressalis (striped rice stemborer), artificial diet, L2 larvae; conditions: 144 h, read-out: control in at least one of the three categories (mortality, anti-feedant effect, or growth inhibition)
Summary of the method: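 Artificial diet treated with aqueous dilutions of DMSO stocks (10'000 ppm stock), dried, then infested with 6-8 L2 larvae per well. Mortality, anti-feeding and growth inhibition scored against untreated samples 6 days after infestation. Control counted when any category exceeds untreated.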

[3] = system: Myzus persicae (Green Peach Aphid); assay: Example B6: Myzus persicae (green peach aphid) intrinsic activity, sucrose solution; conditions: 120 h
Summary of the method: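 Mortality was read 5 days after infestation. Aphids on pea seedlings fed through a stretched Parafilm membrane on inverted 24-well plates containing sucrose solution mixed with test compound, which was diluted from 10′000 ppm DMSO stock.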

[4] = system: Diabrotica Balteata (Corn Root Worm); assay: Example B1: Diabrotica balteata (corn root worm), maize sprouts sprayed, L2 larvae; conditions: 96 h, read-out: control in at least one of the two categories (mortality or growth inhibition)
Summary of the method: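 Spray test: maize sprouts on agar, aqueous dilutions of 10′000 ppm DMSO stock; after drying, 6–10 L2 larvae/well. Read-out at 4 d post-infestation: mortality and growth inhibition vs untreated.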

[5] = system: Euschistus heros (Neotropical Brown Stink Bug); assay: Example B2: Euschistus heros (neotropical brown stink bug), soybean leaves sprayed, N2 nymphs; conditions: 120 h, read-out: control in at least one of the two categories (mortality or growth inhibition)
Protocol: Soybean leaves on agar in 24-well microtiter plates were sprayed with aqueous test solutions prepared from 10′000 ppm DMSO stock solutions. After drying the leaves were infested with N2 nymphs. The samples were assessed for mortality and growth inhibition in comparison to untreated samples 5 days after infestation.

[6] = system: Spodoptera littoralis (Egyptian Cotton Leaf Worm); assay: Example B7: Spodoptera littoralis (Egyptian cotton leaf worm), cotton leaf discs sprayed, L1 larvae; conditions: foliar, 72 h, read-out: control in at least one of the three categories (mortality, anti-feedant effect, or growth inhibition)
Summary of the method: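 Spray application onto agar-supported cotton leaf discs used aqueous solutions derived from 10′000 ppm DMSO stocks. Once dry, discs were infested with five L1 larvae and evaluated after 3 days for mortality, anti-feeding and growth inhibition relative to untreated controls.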

[7] = system: Myzus persicae (Green Peach Aphid); assay: Example B5: Myzus persicae (green peach aphid) feeding/contact activity, sunflower leaf discs; conditions: foliar, 144 h, application rate of 200 ppm, 6 days after infestation
Protocol: Sunflower leaf discs were placed onto agar in a 24-well microtiter plate and sprayed with aqueous test solutions prepared from 10′000 ppm DMSO stock solutions. After drying, the leaf discs were infested with an aphid population of mixed ages. The samples were assessed for mortality 6 days after infestation.

[8] = application rate of 200 ppm, 8 days after infestation, eggs
[9] = application rate of 200 ppm, 6 days after infestation, L2 larvae
[10] = test rate of 12 ppm, 5 days after infestation, intrinsic activity, read-out: mortality
[11] = application rate of 200 ppm, 4 days after infestation, L2 larvae
[12] = application rate of 200 ppm, 5 days after infestation, N2 nymphs
[13] = application rate of 200 ppm, 3 days after infestation, L1 larvae

CC(c1ncnn1-c1ccc(C#N)cn1)N(C)c1ncnc2c(Br)cc(C(F)(F)F)cc12 (centres unmarked) [P.266, 6-[5-[1-[[8-bromo-6-(trifluoromethyl)quinazolin-4-yl]-methyl-amino]ethyl]-1,2,4-triazol-1-yl]pyridine-3-carbonitrile]
≥ 80%: percent control (mortality or growth inhibition) at 200 ppm [1, 8] | percent control (mortality, anti-feedant effect or growth inhibition) at 200 ppm [2, 9] | mortality at 12 ppm [3, 10] | percent control (mortality or growth inhibition) at 200 ppm [4, 11] | percent control (mortality or growth inhibition) at 200 ppm [5, 12] | percent control (mortality, anti-feedant effect or growth inhibition) at 200 ppm [6, 13]

CC(c1ncnn1-c1ncccn1)N(C)c1ncnc2c(Cl)c(F)c(Cl)cc12 (centres unmarked) [P.165, 6,8-dichloro-7-fluoro-N-methyl-N-[1-(2-pyrimidin-2-yl-1,2,4-triazol-3-yl)ethyl]quinazolin-4-amine]
≥ 80%: mortality at 200 ppm [7]

C[C@@H](c1ncnn1-c1ncccn1)N(C)c1ncnc2c(C(F)(F)F)cc(S(=O)(=O)C(F)(F)F)cc12 [P.262, N-methyl-N-[(1S)-1-(2-pyrimidin-2-yl-1,2,4-triazol-3-yl)ethyl]-8-(trifluoromethyl)-6-(trifluoromethylsulfonyl) quinazolin-4-amine]
≥ 80%: percent control (mortality or growth inhibition) at 200 ppm [1, 8] | percent control (mortality, anti-feedant effect or growth inhibition) at 200 ppm [2, 9] | mortality at 12 ppm [3, 10] | percent control (mortality or growth inhibition) at 200 ppm [4, 11] | percent control (mortality or growth inhibition) at 200 ppm [5, 12] | percent control (mortality, anti-feedant effect or growth inhibition) at 200 ppm [6, 13]

COCN(c1ncnc2c(C(F)(F)F)cc(C(F)(F)F)cc12)[C@@H](C)c1ncnn1-c1ccc(C#N)cn1 [P.169, 6-[5-[(1S)-1-[[6,8-bis(trifluoromethyl)quina-zolin-4-yl]-(methoxymethyl)amino]ethyl]-1,2,4-triazol-1-yl]pyridine-3-carbonitrile]
≥ 80%: percent control (mortality or growth inhibition) at 200 ppm [1, 8] | percent control (mortality, anti-feedant effect or growth inhibition) at 200 ppm [2, 9] | mortality at 12 ppm [3, 10] | percent control (mortality or growth inhibition) at 200 ppm [4, 11] | percent control (mortality or growth inhibition) at 200 ppm [5, 12] | percent control (mortality, anti-feedant effect or growth inhibition) at 200 ppm [6, 13]

C=CCN(c1ncnc2c(C(F)(F)F)cc(C(F)(F)F)cc12)C(C)c1ncnn1-c1ccc(C#N)cn1 (centres unmarked) [P.260, 6-[5-[1-[allyl-[6,8-bis(trifluoromethyl)quina-zolin-4-yl]amino]ethyl]-1,2,4-triazol-1-yl]pyridine-3-carbonitrile]
≥ 80%: percent control (mortality or growth inhibition) at 200 ppm [1, 8] | percent control (mortality, anti-feedant effect or growth inhibition) at 200 ppm [2, 9] | mortality at 12 ppm [3, 10] | percent control (mortality or growth inhibition) at 200 ppm [4, 11] | percent control (mortality or growth inhibition) at 200 ppm [5, 12] | percent control (mortality, anti-feedant effect or growth inhibition) at 200 ppm [6, 13]

CC(Nc1ncnc2c(C(F)(F)F)cc(OC(F)(F)F)cc12)c1ncnn1-c1ccc(C#N)cn1 (centres unmarked) [P.220, 6-[5-[1-[[6-(trifluoromethoxy)-8-(trifluoromethyl)quinazolin-4-yl]amino]ethyl]-1,2,4-triazol-1-yl]pyridine-3-carbonitrile]
≥ 80%: percent control (mortality or growth inhibition) at 200 ppm [1, 8] | percent control (mortality, anti-feedant effect or growth inhibition) at 200 ppm [2, 9] | mortality at 12 ppm [3, 10] | percent control (mortality or growth inhibition) at 200 ppm [4, 11] | percent control (mortality or growth inhibition) at 200 ppm [5, 12] | percent control (mortality, anti-feedant effect or growth inhibition) at 200 ppm [6, 13]

CC(Nc1nc(C(F)(F)F)nc2c(C(F)(F)F)cc(C(F)(F)F)cc12)c1ncnn1-c1ccc(C#N)cn1 (centres unmarked) [P.59, 6-[5-[1-[[2,6,8-tris(trifluoromethyl)quina-zolin-4-yl]amino]ethyl]-1,2,4-triazol-1-yl]pyridine-3-carbonitrile]
≥ 80%: mortality at 200 ppm [7]

C[C@H](Nc1ncnc2c(I)cc(C(F)(F)F)cc12)c1ncnn1-c1ccc(C#N)cn1 [P.263, 6-[5-[(1S)-1-[[8-iodo-6-(trifluoromethyl)quinazolin-4-yl]amino]ethyl]-1,2,4-triazol-1-yl]pyridine-3-carbonitrile]
≥ 80%: percent control (mortality or growth inhibition) at 200 ppm [1, 8] | percent control (mortality, anti-feedant effect or growth inhibition) at 200 ppm [2, 9] | mortality at 12 ppm [3, 10] | percent control (mortality or growth inhibition) at 200 ppm [4, 11] | percent control (mortality or growth inhibition) at 200 ppm [5, 12] | percent control (mortality, anti-feedant effect or growth inhibition) at 200 ppm [6, 13]

CC(Nc1ncnc2c(C(F)(F)F)cc(Cl)cc12)c1ncnn1-c1ncccn1 (centres unmarked) [P.40, 6-chloro-N-[1-(2-pyrimidin-2-yl-1,2,4-triazol-3-yl)ethyl]-8-(trifluoromethyl)quinazolin-4-amine]
≥ 80%: percent control (mortality or growth inhibition) at 200 ppm [1, 8] | percent control (mortality, anti-feedant effect or growth inhibition) at 200 ppm [2, 9] | mortality at 12 ppm [3, 10] | percent control (mortality or growth inhibition) at 200 ppm [4, 11] | percent control (mortality or growth inhibition) at 200 ppm [5, 12] | percent control (mortality, anti-feedant effect or growth inhibition) at 200 ppm [6, 13]

CC(c1ncnn1-c1ccc(C#N)cn1)N(C(=O)OCc1ccccc1)c1ncnc2c(C(F)(F)F)cc(C(F)(F)F)cc12 (centres unmarked) [P.10, benzyl N-[6,8-bis(trifluoromethyl)quina-zolin-4-yl]-N-[1-[2-(5-cyano-2-pyridyl)-1,2,4-triazol-3-yl]ethyl]carbamate]
≥ 80%: percent control (mortality or growth inhibition) at 200 ppm [1] | percent control (mortality, anti-feedant effect or growth inhibition) at 200 ppm [2] | mortality at 12 ppm [3] | percent control (mortality or growth inhibition) at 200 ppm [4] | percent control (mortality or growth inhibition) at 200 ppm [5] | percent control (mortality, anti-feedant effect or growth inhibition) at 200 ppm [6]

CC(Nc1ncnc2c(C(F)(F)F)cc(C(F)(F)F)cc12)c1ncnn1-c1ncccn1 (centres unmarked) [P.16, N-[1-(2-pyrimidin-2-yl-1,2,4-triazol-3-yl)ethyl]-6,8-bis(trifluoromethyl)quinazolin-4-amine]
≥ 80%: percent control (mortality or growth inhibition) at 200 ppm [1, 8] | percent control (mortality, anti-feedant effect or growth inhibition) at 200 ppm [2, 9] | mortality at 12 ppm [3, 10] | percent control (mortality or growth inhibition) at 200 ppm [4, 11] | percent control (mortality or growth inhibition) at 200 ppm [5, 12] | percent control (mortality, anti-feedant effect or growth inhibition) at 200 ppm [6, 13]

C[C@@H](c1ncnn1-c1ncccn1)N(CC1CC1)c1ncnc2c(Cl)cc(C(F)(F)F)cc12 [P.272, 8-chloro-N-(cyclopropylmethyl)-N-[(1S)-1-(2-pyrimidin-2-yl-1,2,4-triazol-3-yl)ethyl]-6-(trifluoromethyl)quinazolin-4-amine]
≥ 80%: percent control (mortality or growth inhibition) at 200 ppm [1, 8] | percent control (mortality, anti-feedant effect or growth inhibition) at 200 ppm [2, 9] | mortality at 12 ppm [3, 10] | percent control (mortality or growth inhibition) at 200 ppm [4, 11] | percent control (mortality or growth inhibition) at 200 ppm [5, 12] | percent control (mortality, anti-feedant effect or growth inhibition) at 200 ppm [6, 13]
